In ChEMBL document CHEMBL5634121, “Discovery of novel G9a/GLP covalent inhibitors for the treatment of triple-negative breast cancer” (Eur J Med Chem, 2023):
Active and inactive are the calls of the source. The rule behind the calls is not given here.

What was measured:
4T1 = test: Antiproliferative activity against mouse 4T1 cells incubated for 3 to 5 days by MTT assay; type: functional, cell-based
MDA-MB-231 [1] = test: Antiproliferative activity against human MDA-MB-231 cells incubated for 3 to 5 days by MTT assay; type: functional, cell-based
[2] = biological target: T1, Histone-lysine N-methyltransferase EHMT2 (Homo sapiens) (UniProt Q96KQ7); test: Inhibition of G9a (unknown origin) at 1 uM by AlphaLISA immunodetection assay relative to control
T1 sequence (whole entry): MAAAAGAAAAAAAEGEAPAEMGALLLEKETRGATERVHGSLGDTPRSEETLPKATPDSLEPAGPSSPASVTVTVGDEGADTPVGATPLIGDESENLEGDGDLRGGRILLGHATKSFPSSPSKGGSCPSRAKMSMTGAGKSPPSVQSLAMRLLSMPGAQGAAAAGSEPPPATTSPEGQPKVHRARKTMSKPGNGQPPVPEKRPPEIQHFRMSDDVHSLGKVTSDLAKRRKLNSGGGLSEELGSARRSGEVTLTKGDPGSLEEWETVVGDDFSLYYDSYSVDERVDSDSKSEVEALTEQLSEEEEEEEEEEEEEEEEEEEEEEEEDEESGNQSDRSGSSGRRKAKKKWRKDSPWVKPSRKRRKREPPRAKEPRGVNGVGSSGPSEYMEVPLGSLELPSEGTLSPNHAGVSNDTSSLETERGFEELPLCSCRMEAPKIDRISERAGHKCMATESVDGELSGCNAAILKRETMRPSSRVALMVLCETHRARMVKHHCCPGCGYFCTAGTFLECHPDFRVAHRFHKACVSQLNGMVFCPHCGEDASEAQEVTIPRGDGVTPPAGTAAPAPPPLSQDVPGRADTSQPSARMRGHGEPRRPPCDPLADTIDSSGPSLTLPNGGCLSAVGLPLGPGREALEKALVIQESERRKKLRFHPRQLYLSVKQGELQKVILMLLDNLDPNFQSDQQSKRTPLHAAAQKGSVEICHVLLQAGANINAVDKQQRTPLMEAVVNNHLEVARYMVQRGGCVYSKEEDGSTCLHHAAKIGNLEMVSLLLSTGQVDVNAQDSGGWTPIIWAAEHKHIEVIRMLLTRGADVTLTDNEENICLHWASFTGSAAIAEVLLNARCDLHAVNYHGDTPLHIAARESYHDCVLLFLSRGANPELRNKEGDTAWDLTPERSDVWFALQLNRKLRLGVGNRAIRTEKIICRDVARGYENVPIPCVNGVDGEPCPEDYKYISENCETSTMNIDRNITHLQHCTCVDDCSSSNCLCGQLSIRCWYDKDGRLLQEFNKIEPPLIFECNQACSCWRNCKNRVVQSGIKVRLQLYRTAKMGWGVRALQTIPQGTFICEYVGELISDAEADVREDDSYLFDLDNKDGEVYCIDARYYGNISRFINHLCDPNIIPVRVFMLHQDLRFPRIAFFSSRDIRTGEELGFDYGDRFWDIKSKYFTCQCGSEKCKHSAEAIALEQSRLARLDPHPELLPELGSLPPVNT

[3] = biological target: T1, Histone-lysine N-methyltransferase EHMT2 (Homo sapiens); test: Inhibition of G9a (unknown origin)
MDA-MB-231 [4] = test: Induction of apoptosis in human MDA-MB-231 cells assessed as late apoptotic cells at 20 uM incubated for 72 hrs by Annexin V and PI staining based flow cytometry analysis (reference value: 0.45 %); type: functional
MDA-MB-231 [5] = test: Induction of apoptosis in human MDA-MB-231 cells assessed as necrotic cells at 20 uM incubated for 72 hrs by Annexin V and PI staining based flow cytometry analysis (reference value: 0.32 %); type: functional
MDA-MB-231 [6] = test: Induction of apoptosis in human MDA-MB-231 cells assessed as early apoptotic cells at 20 uM incubated for 72 hrs by Annexin V and PI staining based flow cytometry analysis (reference value: 0.92 %); type: functional
[7] = biological target: T2, Histone-lysine N-methyltransferase EHMT1/EHMT2 (Homo sapiens) (UniProt Q9H9B1+Q96KQ7); test: Inhibition of G9a/GLP in human MDA-MB-231 cells assessed as reduction in H3K9 dimethylation at 20 uM incubated for 3 days by Western blotting analysis; type: cell-based; conditions: time 3.0 day
MDA-MB-231 [8] = test: Antiproliferative activity against human MDA-MB-231 cells assessed as cell growth inhibition at 20 uM incubated for 1 day followed by compound washout and measured after 1 to 4 days; type: functional, cell-based
MDA-MB-231 [9] = test: Induction of apoptosis in human MDA-MB-231 cells assessed as viable cells at 20 uM incubated for 72 hrs by Annexin V and PI staining based flow cytometry analysis (reference value: 98.31 %); type: functional; conditions: read-out: Activity
[10] = biological target: T3, Histone-lysine N-methyltransferase EHMT1 (Homo sapiens) (UniProt Q9H9B1); test: Inhibition of GLP (unknown origin) at 1 uM
T3 sequence (whole entry): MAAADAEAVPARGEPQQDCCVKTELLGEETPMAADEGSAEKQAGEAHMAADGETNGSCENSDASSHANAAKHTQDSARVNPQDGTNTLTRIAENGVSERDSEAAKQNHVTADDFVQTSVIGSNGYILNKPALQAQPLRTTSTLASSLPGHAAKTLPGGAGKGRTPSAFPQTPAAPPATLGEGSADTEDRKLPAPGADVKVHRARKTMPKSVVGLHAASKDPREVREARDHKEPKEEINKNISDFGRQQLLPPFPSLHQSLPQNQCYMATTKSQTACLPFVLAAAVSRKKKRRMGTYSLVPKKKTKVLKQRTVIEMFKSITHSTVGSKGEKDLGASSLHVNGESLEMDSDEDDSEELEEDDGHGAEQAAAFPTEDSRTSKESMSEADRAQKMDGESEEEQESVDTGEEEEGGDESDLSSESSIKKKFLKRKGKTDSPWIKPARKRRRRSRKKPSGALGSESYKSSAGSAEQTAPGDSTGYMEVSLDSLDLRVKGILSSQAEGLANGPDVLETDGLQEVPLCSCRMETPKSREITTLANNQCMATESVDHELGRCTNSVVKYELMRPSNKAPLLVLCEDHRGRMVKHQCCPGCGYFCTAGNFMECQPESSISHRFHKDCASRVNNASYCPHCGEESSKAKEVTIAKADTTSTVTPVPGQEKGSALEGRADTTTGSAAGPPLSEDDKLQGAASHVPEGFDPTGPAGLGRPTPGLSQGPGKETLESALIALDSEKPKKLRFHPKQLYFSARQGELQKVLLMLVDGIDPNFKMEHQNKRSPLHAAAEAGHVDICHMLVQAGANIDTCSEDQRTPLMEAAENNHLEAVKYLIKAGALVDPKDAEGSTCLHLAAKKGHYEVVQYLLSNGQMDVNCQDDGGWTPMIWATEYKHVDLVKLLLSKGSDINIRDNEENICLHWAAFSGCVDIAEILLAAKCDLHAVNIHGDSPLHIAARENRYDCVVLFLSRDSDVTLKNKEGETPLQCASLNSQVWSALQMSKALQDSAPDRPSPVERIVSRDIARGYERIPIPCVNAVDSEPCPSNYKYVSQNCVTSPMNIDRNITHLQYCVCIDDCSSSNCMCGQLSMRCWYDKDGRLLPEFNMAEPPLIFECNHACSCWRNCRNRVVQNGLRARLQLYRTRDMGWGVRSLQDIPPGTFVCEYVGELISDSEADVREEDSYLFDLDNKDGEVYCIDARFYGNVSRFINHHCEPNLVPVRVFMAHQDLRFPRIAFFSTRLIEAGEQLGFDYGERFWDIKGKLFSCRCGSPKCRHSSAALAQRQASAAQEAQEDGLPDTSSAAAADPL

[11] = Cytotoxicity against human L02 cells assessed as reduction in cell viability incubated for 2 days by MTT assay; type: toxicity, cell-based
[12] = biological target: T2, Histone-lysine N-methyltransferase EHMT1/EHMT2 (Homo sapiens); test: Inhibition of G9a/GLP in human MDA-MB-231 cells assessed as reduction in H3K9 dimethylation at 20 uM incubated for 1 day followed by compound washout and measured after 1 to 4 days; type: cell-based
MDA-MB-231 [13] = test: Antiproliferative activity against human MDA-MB-231 cells after 5 days by MTT assay; type: functional, cell-based; conditions: MDA-MB-231, 120 h
[14] = biological target: T2, Histone-lysine N-methyltransferase EHMT1/EHMT2 (Homo sapiens); test: Inhibition of G9a/GLP in human MDA-MB-231 cells assessed as reduction in H3K9 dimethylation incubated for 3 days by Western blotting analysis; type: cell-based; conditions: dose 2.5-20 µM, time 3.0 day
MDA-MB-231 [15] = test: Inhibition of colony formation in human MDA-MB-231 cells at 1 to 10 uM refreshed every 4 days for 12 days by crystal violet staining based assay; type: functional, cell-based; conditions: dose 1-10 µM, time 12.0 day
[16] = Mus musculus, 4T1, read-out: IC50

Q: With C=CC(=O)N1CCC=C(c2nc(NC3CCN(C(C)C)CC3)c3cc(OC)c(OC)cc3n2)C1 as the compound, how does the IC50 (4T1; [16]) read?
A: 11.2 µM

Q: What about the IC50 (MDA-MB-231 [1]) of the same compound?
A: 13.4 µM

Q: And the inhibition [2]?
A: 7%

Q: With CCC(=O)Nc1cccc(-c2nc(NC3CCN(C)CC3)c3cc(OC)c(OC)cc3n2)c1 as the compound, how does the inhibition [3] read?
A: inactive

Q: What about the Activity (MDA-MB-231 [4]) of the same compound?
A: 7.29%

Q: And the Activity (MDA-MB-231 [5])?
A: 1.32%

Q: And the Activity (MDA-MB-231 [6])?
A: 8.69%

Q: What about the inhibition [7] of the same compound?
A: Active

Q: And the Activity (MDA-MB-231 [8])?
A: inactive

Q: And the viability at 20 µM (MDA-MB-231 [9])?
A: 82.7%

Q: For C=CC(=O)NC/C=C/c1nc(NC2CCN(C(C)C)CC2)c2cc(OC)c(OC)cc2n1, which IC50 (4T1; [16]) is on record?
A: > 30 µM

Q: And the IC50 (MDA-MB-231 [1])?
A: 2.26 µM

Q: And the inhibition [2]?
A: 56%

Q: For C=CC(=O)N1CCC=C(c2nc(NC3CCN(Cc4ccccc4)CC3)c3cc(OC)c(OC)cc3n2)C1, which IC50 (4T1; [16]) is on record?
A: 28.6 µM

Q: And the IC50 (MDA-MB-231 [1])?
A: 10.5 µM

Q: For CCC(=O)N1CC=C(c2nc(NC3CCN(C)CC3)c3cc(OC)c(OC)cc3n2)C1, which inhibition [3] is on record?
A: inactive

Q: Which IC50 (4T1; [16]) does the source give for C=CC(=O)Nc1cccc(-c2nc(NC3CCN(C(C)C)CC3)c3cc(OC)c(OC)cc3n2)c1 here?
A: 10.4 µM

Q: What about the IC50 (MDA-MB-231 [1]) of the same compound?
A: 1.53 µM

Q: And the inhibition [2]?
A: 26%

Q: Which IC50 (4T1; [16]) does the source give for C=CC(=O)N1CC=C(c2nc(NC3CCN(C)CC3)c3cc(OC)c(OC)cc3n2)C1 here?
A: 10.4 µM

Q: And the inhibition [10]?
A: Active

Q: What about the IC50 (MDA-MB-231 [1]) of the same compound?
A: 0.89 µM

Q: And the inhibition [2]?
A: 98%

Q: Which results are given for C=CC(=O)NC/C=C/c1nc(NC2CCN(C)CC2)c2cc(OC)c(OC)cc2n1?
A: IC50 (4T1; [16]): > 30 µM; IC50 (MDA-MB-231 [1]): > 30 µM

Q: Which IC50 (4T1; [16]) does the source give for C=CC(=O)N1CC=C(c2nc(NC3CCN(C(C)C)CC3)c3cc(OC)c(OC)cc3n2)C1 here?
A: 28.1 µM

Q: And the IC50 (MDA-MB-231 [1])?
A: 1.27 µM

Q: What about the inhibition [2] of the same compound?
A: 24%

Q: Which results are given for C=CC(=O)NC/C=C/c1nc(NC2CCN(Cc3ccccc3)CC2)c2cc(OC)c(OC)cc2n1?
A: IC50 (4T1; [16]): 17.6 µM; IC50 (MDA-MB-231 [1]): 2.07 µM; inhibition [2]: 60%

Q: Which IC50 at 2 days [11] does the source give for COc1cc2nc(N3CCCN(C)CC3)nc(NC3CCN(Cc4ccccc4)CC3)c2cc1OC here?
A: 4.28 µM

Q: Which results are given for C=CC(=O)N1CC=C(c2nc(NC3CCN(Cc4ccccc4)CC3)c3cc(OC)c(OC)cc3n2)C1?
A: IC50 (4T1; [16]): 8.96 µM; IC50 (MDA-MB-231 [1]): 1.6 µM; inhibition [2]: 38%

Q: Which inhibition [3] does the source give for CCC(=O)N1CCC=C(c2nc(NC3CCN(C)CC3)c3cc(OC)c(OC)cc3n2)C1 here?
A: inactive

Q: With C=CC(=O)Nc1ccc(C)c(-c2nc(NC3CCN(C(C)C)CC3)c3cc(OC)c(OC)cc3n2)c1 as the compound, how does the IC50 (4T1; [16]) read?
A: 25.6 µM

Q: What about the IC50 (MDA-MB-231 [1]) of the same compound?
A: 18.3 µM

Q: Which IC50 (4T1; [16]) does the source give for C=CC(=O)N1CCC=C(c2nc(NC3CCN(C)CC3)c3cc(OC)c(OC)cc3n2)C1 here?
A: 8.94 µM

Q: And the inhibition [10]?
A: Active

Q: What about the IC50 (MDA-MB-231 [1]) of the same compound?
A: 3.52 µM

Q: And the inhibition [2]?
A: 98%

Q: Which results are given for COc1cc2c(NC3CCN(C(C)C)CC3)nc(N3CCC(F)(F)CC3)nc2cc1OCCCN1CCCC1?
A: inhibition [12]: inactive; IC50 (4T1; 4t1): 1.55 µM; Activity (MDA-MB-231 [4]): 16.69%; IC50 (MDA-MB-231 [13]): 1 µM; Activity (MDA-MB-231 [5]): 4.04%; IC50 (MDA-MB-231 [1]): 0.99 µM; IC50 at 2 days [11]: 6.99 µM; Activity (MDA-MB-231 [6]): 72.11%; inhibition [14]: Dose-Dependent Effect; inhibition (MDA-MB-231 [15]): Active; Activity (MDA-MB-231 [8]): inactive; viability at 20 µM (MDA-MB-231 [9]): 7.16%
